Measurements reported in patent US9499493B2, “2,4-pyrimidinediamine compounds and their uses” (Rigel Pharmaceuticals, Inc., priority 2002, dated 2016).

Key:
[1] = test system: cultured human mast cells (CHMC); assay: CHMC low cell density IgE activation: tryptase assay; assay type: cell-based; conditions: anti-IgE
How it was run: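 Supernatant tryptase activity, assayed with substrate for 30 min at room temperature, served as the degranulation measure. Mast cells (1000-1500 per well depending on donor) sat 1 hr at 37° C in MT before a 30 min anti-IgE challenge at 37° C.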

[2] = test system: cultured human mast cells (CHMC); assay: CHMC low cell density ionomycin activation: tryptase assay; assay type: cell-based

IC50 [1] [µM]	IC50 [2] [µM]	Compound
1.04	> 10	CCOC(=O)COc1cccc(Nc2ncc(F)c(Nc3ccc4c(c3)OCCO4)n2)c1 [R926482, N2-(3-Ethoxycarbonylmethyleneoxyphenyl)-N4-(3,4-ethylenedioxyphenyl)-5-fluoro-2,4-pyrimidinediamine]
0.343	> 10	O=C(COc1cccc(Nc2ncc(F)c(Nc3cccc(O)c3)n2)c1)NCCO [R926506, 5-Fluoro-N4-(3-hydroxyphenyl)-N2-[3-(N-2-hydroxyethylamino)carbonylmethyleneoxyphenyl]-2,4-pyrimidinediamine]
8.75	> 10	CCOC(=O)c1cnc(Nc2cccc(O)c2)nc1N[C@@H](Cc1ccccc1)C(=O)OCC [R926528, 5-Ethoxycarbonyl-N2-(3-hydroxyphenyl)-4-[N-(L)-phenylalanineethyl ester]-2-pyrimidineamine]
> 10	> 10	CCOC(=O)COc1ccc(Nc2nc(Cl)cc(NCC(=O)OC)n2)cc1 [R926555, 6-Chloro-N2-(4-ethoxycarbonylmethyleneoxyphenyl)-N4-(methoxycarbonylmethyl)-2,4-pyrimidinediamine]
7.7	> 10	COC(=O)c1cnc(Nc2ccc(OCC(=O)N3CCCC3)cc2)nc1Nc1ccc(OCC(=O)N2CCCC2)cc1 [R926559, 5-Methoxycarbonyl-N2,N4-bis[4-(N-pyrrolidino)carbonylmethyleneoxyphenyl)-2,4-pyrimidinediamine]
> 10	> 10	O=C(O)COc1ccc(Nc2ncc(F)c(Nc3ccc(OCC(=O)O)cc3)n2)cc1 [R926560, N2,N4-Bis(4-carboxymethyleneoxy)phenyl-5-fluoro-2,4-pyrimidinediamine]
> 10	> 10	CCOC(=O)c1cnc(Nc2ccc(OCC(=O)N3CCCC3)cc2)nc1Nc1ccc(OCC(=O)N2CCCC2)cc1 [R926562, N2,N4-Bis[4-(N-pyrrolidino)carbonylmethyleneoxyphenyl]-5-ethoxycarbonyl-2,4-pyrimidinediamine]
> 10	> 10	O=C(COc1ccc(Nc2ncc(F)c(Nc3ccc(OCC(=O)N4CCCC4)cc3)n2)cc1)N1CCCC1 [R926563, N2,N4-Bis(4-N-pyrrolidinocarbonylmethyleneoxyphenyl)-5-fluoro-2,4-pyrimidinediamine]
3.75	> 10	O=C(O)COc1ccc(Nc2ncc(F)c(Nc3cccc(O)c3)n2)cc1 [R926564, N2-(4-Carboxymethyleneoxyphenyl)-5-Fluoro-N4-(3-hydroxyphenyl)-2,4-pyrimidinediamine]
2.73	> 10	CCOC(=O)COc1ccc(Nc2nc(Nc3ccc(OCC(=O)OCC)cc3)c([N+](=O)[O-])c(C(=O)OCC)n2)cc1 [R926566, N2,N4-Bis(4-ethoxycarbonylmethylenedioxyphenyl)-6-ethoxycarbonyl-5-nitro-2,4-pyrimidinediamine]
9.3	> 10	CCOC(=O)COc1ccc(Nc2nc(Nc3ccc(OCC(=O)OCC)cc3)c(N)c(C(=O)OCC)n2)cc1 [R926567, 5-Amino-N2,N4-bis(4-ethoxycarbonylmethyleneoxyphenyl)-6-ethoxycarbonyl-2,4-pyrimidinediamine]
0.61	3.07	CCOC(=O)COc1ccc(Nc2nc(Cl)c(Cl)c(Nc3ccc(OCC(=O)OCC)cc3)n2)cc1 [R926569, N2,N4-Bis(4-ethoxycarbonylmethyleneoxyphenyl)-5,6-dichloro-2,4-pyrimidinediamine]
> 10	> 10	CCOC(=O)COc1ccc(Nc2nc(Nc3ccc(OCC(=O)OCC)cc3)c(NC(=O)Nc3ccccc3)c(C(=O)OCC)n2)cc1 [R926571, N2,N4-Bis(4-ethoxycarbonylmethyleneoxyphenyl)-6-ethoxycarbonyl-5-(phenylaminocarbonylamino)-2,4-pyrimidinediamine]
1.8	6.08	COC(=O)COc1ccc(Nc2ncc(F)c(Nc3ccc(OCC(=O)OC(C)(C)C)cc3)n2)cc1 [R926572]
> 10	> 10	CCOC(=O)c1cnc(Nc2ccc(OCC(=O)OC)cc2)nc1Nc1ccc(OCC(=O)O)cc1 [R926583, N4-(4-Carboxymethyleneoxyphenyl)-5-ethoxycarbonyl-N2-(4-methoxycarbonylmethyleneoxyphenyl)-2,4-pyrimidinediamine]
> 10	> 10	CCOC(=O)c1cnc(Nc2ccc(OCC(=O)O)cc2)nc1Nc1ccc(OCC(=O)OC)cc1 [R926584, N2-(4-Carboxymethyleneoxyphenyl)-5-ethoxycarbonyl-N4-(4-methoxycarbonylmethyleneoxyphenyl)-2,4-pyrimidinediamine]
> 10	> 10	C=CCNC(=O)Nc1c(Nc2ccc(OCC(=O)OCC)cc2)nc(Nc2ccc(OCC(=O)OCC)cc2)nc1C(=O)OCC [R926585]
2.75	> 10	CCOC(=O)COc1ccc(Nc2nc(Nc3ccc(OCC(=O)OCC)cc3)c(NC(=O)NC(=O)OCC)c(C(=O)OCC)n2)cc1 [R926586, N2,N4-Bis(4-ethoxycarbonylmethyleneoxyphenyl)-6-ethoxycarbonyl-5-(ethoxycarbonylaminocarbonylamino)-2,4-5-pyrimidinetriamine]

Second part, the molecule before the results:

Compound	IC50 [1] [µM]	IC50 [2] [µM]
COc1ccc(-c2ccccc2)cc1Nc1ncc(F)c(Nc2cc(-c3ccccc3)ccc2OC)n1 [R926400, N2,N4-Bis[(2-methoxy-5-phenyl)phenyl]-5-fluoro-2,4-pyrimidinediamine]	> 10	> 10
COc1cc(-c2ccccc2)c(C)cc1Nc1ncc(F)c(Nc2cc(C)c(-c3ccccc3)cc2OC)n1 [R926401, N2,N4-Bis[(2-methoxy-5-methyl-4-phenyl)phenyl]-5-fluoro-2,4-pyrimidinediamine]	> 10	> 10
Cc1ccc(-c2ccccc2)cc1Nc1ncc(F)c(Nc2cc(-c3ccccc3)ccc2C)n1 [R926402, N2,N4-Bis[(2-methyl-5-phenyl)phenyl]-5-fluoro-2,4-pyrimidinediamine]	> 10	> 10
Fc1cnc(Nc2ccc3c(c2)OCCO3)nc1NNc1ccc2c(c1)OCO2 [R926406, N2-(3,4-Ethylenedioxyphenyl)-N4-(3,4-methylenedioxyphenylhydrazinyl)-5-fluoro-2-pyrimidineamine]	> 10	> 10
CSc1nc(Nc2ccc3c(c2)OCCO3)nc(Nc2ccc3c(c2)OCCO3)c1Cl [R926475, N2,N4-Bis(3,4-ethyelenedioxyphenyl)-5-chloro-6-thiomethyl-2,4-pyrimidinediamine]	2.15	> 10
N#CCOc1ccc(Nc2ncc(F)c(Nc3ccc4c(c3)OCCO4)n2)cc1 [R926480, N2-(4-Cyanomethyleneoxyphenyl)-N4-(3,4-ethylenedioxyphenyl)-5-fluoro-2,4-pyrimidinediamine]	1.9	> 10
O=C(COc1cccc(Nc2ncc(F)c(Nc3ccc4c(c3)OCCO4)n2)c1)N1CCOCC1 [R926484, N4-(3,4-Ethylenedioxyphenyl)-5-fluoro-N2-[3-(N-morpholino)carbonylmethyleneoxyphenyl]-2,4-pyrimidinediamine]	1.52	> 10
CC(C)Oc1cccc(Nc2nc(Nc3ccc4oc(C(=O)N5CCOCC5)cc4c3)ncc2F)c1 [R926489, 5-Fluoro-N4-(3-isopropoxyphenyl)-N2-[2-(N-morpholino)carbonylbenzofuran-5-yl]-2,4-pyrimidinediamine]	1.41	> 10
Fc1cnc(Nc2ccc3oc(CN4CCOCC4)cc3c2)nc1Nc1ccc2c(c1)OCCO2 [R926490, N4-(3,4-Ethylenedioxyphenyl)-5-fluoro-N2-[2-(N-morpholinomethylene)benzofuran-5-yl]-2,4-pyrimidinediamine]	1.57	> 10
O=C(COc1cccc(Nc2ncc(F)c(Nc3ccc4c(c3)OCCO4)n2)c1)N1CCNCC1 [R926503, N4-(3,4-Ethylenedioxyphenyl)-5-fluoro-N2-[3-(N-piperazino)carbonylmethyleneoxyphenyl]-2,4-pyrimidinediamine]	0.452	> 10
CCOC(=O)c1cnc(N[C@@H](Cc2ccccc2)C(=O)OCC)nc1N[C@@H](Cc1ccccc1)C(=O)OCC [R926526, 2,4-Bis[N-(L)-phenylalaninylethyl ester]-5-ethoxycarbonylpyrimidine]	> 10	> 10
CCOC(=O)c1cnc(N[C@H](C(=O)OCC)C(C)C)nc1N[C@H](C(=O)OCC)C(C)C [R926527, 2,4-Bis[N-(L)-valinylethyl ester]-5-ethoxycarbonylpyrimidine]	> 10	> 10
O=C(O)c1cnc(Nc2cccc(O)c2)nc1NC(C(=O)O)c1ccccc1 (stereo not shown) [R926535, 5-Carboxy-N2-(3-hydroxyphenyl)-N4-[N-(L)-phenylglycine)-2-pyrimidineamine]	> 10	> 10
CC(C)(C)OC(=O)COc1ccc(Nc2ncc(F)c(Nc3ccc(OCC(=O)OC(C)(C)C)cc3)n2)cc1 [R926574, N2,N4-Bis[4-(tert-butoxycarbonylmethyleneoxy)phenyl]-5-fluoro-2,4-pyrimidinediamine]	1.96	2.63
CC(C)(C)OC(=O)COc1ccc(Nc2nc(Cl)c(Cl)c(Nc3ccc(OCC(=O)OC(C)(C)C)cc3)n2)cc1 [R926576, N2,N4-Bis(4-tert-butoxyoxycarbonylmethyleneoxyphenyl)-5,6-dichloro-2,4-pyrimidinediamine]	> 10	> 10
CCOC(=O)c1cnc(Nc2ccc(OCC(=O)OC)cc2)nc1Nc1ccc(OCC(=O)OC(C)(C)C)cc1 [R926579, N4-(4-tert-Butoxycarbonylmethyleneoxyphenyl)-5-ethoxycarbonyl-N2-(4-methoxycarbonylmethyleneoxyphenyl)-2,4-pyrimidinediamine]	> 10	> 10
COC(=O)COc1ccc(Nc2ncc(C(=O)OC)c(Nc3ccc(OCC(=O)OC(C)(C)C)cc3)n2)cc1 [R926580, N4-(4-tert-Butoxycarbonylmethyleneoxyphenyl)-N2-(4-methoxycarbonylmethyleneoxyphenyl)-5-methoxycarbonyl-2,4-pyrimidinediamine]	10	> 10
